Laboratory results: PubChem BioAssay AID179 (DTP/NCI, 2004)
“And” between values parts separate entries of the source, which are not always exact repeats. Identical values can stand only once. The source made the active and inactive calls.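 How the source made its calls: active means compounds giving half or more protection of infected cells from virus-caused growth loss, again on retest; inactive means the rest.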

Tested on: CEM cells HIV-1 protection, formazan growth assay
Test: NCI AIDS Antiviral Assay
Settings: for IC50: measured here: growth of uninfected CEM cells
How it was run: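 Human CEM cells, uninfected and HIV-1-infected, exposed to five drug concentrations; growth measured by soluble formazan assay and scored as percent protection from infection, with protecting compounds retested.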

SMILES	outcome	EC50 [µM]	IC50
COc1ccc(N(CC(=O)O)S(=O)(=O)c2ccccc2)cc1	inactive	–	–
Cc1ccc(-c2cc[n+]3c(n2)oc2ccccc23)cc1	–	> 200	3.63 µM
O=C(CCCCC[n+]1ccccc1)Sc1ccccc1C(=O)NCc1ccc2c(c1)OCO2	–	> 34.7	5.37 µM
Nc1ncnc2c1ncn2C1COC(CO)C1CO (configuration not stated)	–	87.1	> 200 µM
Cc1cc(=O)oc2c(CNC(CC(C)C)C(=O)O)c(O)ccc12 (configuration not stated)	–	> 200	> 200 µM
CCOC(=O)/C(C1=N[C@H](C(=O)OCC)CS1)=C(\O)c1ccccc1	–	> 145	> 145 µM
COc1cc2c(cc1OC)-c1c(cc(OC)c(OC)c1OC)C2=O	inactive	–	–
O=C1CCC(C(Sc2ccccc2)(Sc2ccccc2)Sc2ccccc2)C1 (configuration not stated)	–	> 200	38.9 µM
COc1cccc(C=C2C(=O)c3ccccc3C2=O)c1	inactive	–	–
CN(C)c1ccc2c(c1)-c1cc(N(C)C)ccc1C2=CC=C(C#N)C#N	–	> 4.27	> 4.27 µM
N#Cc1cc([N+](=O)[O-])ccc1NC(=O)C(=O)Nn1c(=S)[nH]c2ccccc2c1=O	inactive	–	–
N#C/C(=C\NC(=S)Nc1ccc(S(N)(=O)=O)cc1)C(=O)c1ccc2ccccc2c1	–	> 200	155 µM
CCN(CC)CC(C(=O)Nc1c(C)cccc1C)/C(C)=N/NC(N)=S (configuration not stated)	–	> 37.2	> 37.2 µM
O=C(Nc1ccc(C2=NCC(O)CN2)cc1)c1ccc(C(=O)Nc2ccc(C3=NCC(O)CN3)cc2)cc1 (configuration not stated)	–	12.9	> 200 µM
Cc1cc(C)c2c(c1)sc1nncn12	inactive	–	–
Cn1c(=O)c2c(nnc(-c3ccccc3)[n+]2[O-])n(C)c1=O	–	> 200	87.1 µM
COC(=O)c1nn(C(=N)c2ccc(Cl)cc2)c2c1CCC2	–	> 813	> 813 µM
COc1c2oc(=O)ccc2c(Br)c2c(Br)c(Br)oc12	–	> 102	47.9 µM
CCOC(=O)NCC(=O)NCC(=O)NCC(N)=O	–	> 200	> 200 µM
C#CC(OC(=O)NC1CCCCC1)(c1ccccc1)c1ccccc1	–	> 200	20.4 µM
O=C1CCC2(CCCCC2)N1	–	> 200	> 200 µM
COc1ccc(-c2nnc3c4ccccc4sn23)cc1	–	> 25.7	22.4 µM
NC1=C(O)c2cccc3cccc(c23)C1=O	inactive	–	–
CCOC(=O)C(=O)/C(=C/N1C(=O)CC(=O)NC1=S)C(=O)OCC	–	> 200	> 200 µM

SMILES	outcome	EC50 [µM]	IC50
C/C=C/C=Nc1c(C#N)c2n(c1C(=O)Nc1ccccc1)CCC2	–	> 100	> 100 µM
Cn1cc2ccccc2c1-c1nc(F)nc(OCC(=O)[C@H]2CCC3[C@@H]4CCC5=CC(=O)CC[C@]5(C)C4[C@@H](O)C[C@@]32C)n1 (some centres not stated)	–	> 9.12	2.75 µM
COc1ccc(C(c2ccccc2)N2C(=O)CCC2C(=O)O)cc1OC (configuration not stated)	–	> 200	> 200 µM
O=C(NNC(=S)NCc1ccccc1)C12CC3CC(CC(C3)C1)C2	–	> 200	25.1 µM
CS(=O)(=O)OCCN(CCOS(C)(=O)=O)c1ccc(C=O)cc1	–	> 200	0.479 µM
CC(C)OC(=O)NCCn1cc(-c2ccccc2)nn1	–	> 200	> 200 µM
CCC(C)(C)c1ccc(OP(=S)(S)Oc2ccc(C(C)(C)CC)cc2)cc1	–	> 200	37.2 µM
Cc1nc(Nc2ccc(Cl)cc2)sc1C(=O)NNC(=S)NN	–	> 83.2	33.1 µM
COc1ccc2c(c1OC)CN(C)CCc1cc3c(cc1C(=O)C2)OCO3	–	> 355	288 µM
Cc1ccc2oc(=O)c(-c3ccccc3)nc2c1	–	> 21.9	> 21.9 µM
COc1ccc(C2=C(Cl)c3cc(OC)c(OC)cc3C2)cc1OC	–	> 200	> 200 µM
C1COC2(CNCC3(CNC2)OCCO3)O1	–	> 200	174 µM
COc1cc2ccnc3c2c(c1O)-c1ccccc1C3=O	inactive	–	–
Cc1cn(C2CC3C(COC(C)(C)N3O)O2)c(=O)[nH]c1=O (configuration not stated)	–	7.76	> 200 µM
Cn1cc(NC(=O)c2cc(NC(=O)CCCCCCCCCC(=O)Nc3cc(C(=O)Nc4cc(C(=O)NCCC(=N)N)n(C)c4)n(C)c3)cn2C)cc1C(=O)NCCC(=N)N	–	4.37	5.75 µM
CC(=O)c1c(O)cc(O)c(-c2c(C)cc(O)c3c2C(=O)c2cccc(O)c2C3=O)c1O	–	> 200	25.7 µM
O=c1cc[nH]c2c1ccc1[nH]ccc(=O)c12	–	> 200	> 200 µM
CNC(=O)CCCNC(=O)CCCC(=O)OC	–	> 200	> 200 µM
C=C(C)C1CCC(C(=O)O)CC1 (configuration not stated)	–	> 200	> 200 µM
COc1cc2[nH]c3c(c2cc1OC)CCN[C@]31CC[C@]2(CC3c4c(cc(OC)c(O)c42)CCN3C)C[C@H]1OC (some centres not stated)	inactive	–	–
C(=C/c1ccnc2ccccc12)/c1cccs1	–	0.0631	47.9 µM
COc1ccc(C(=O)C(CC2C(=O)CC(C)(C)C(C(=O)C(=O)Nc3c(C)cccc3C)C2=O)c2ccc(OC)cc2)cc1 (configuration not stated)	–	> 427	372 µM
COC(=O)CCN1CCN(CCO)CC1C (configuration not stated)	–	> 200	> 200 µM
CSc1c(C#N)c(=C(C#N)C#N)nc(C)/c1=C(\C)O	–	> 100	> 100 µM

SMILES	outcome	EC50 [µM]	IC50
S=C(NC/C(Br)=C/Br)Nc1cccc2ccccc12	–	> 200	36.3 µM
O=C(Cn1c(=O)oc2ccccc21)N(c1ccccc1)c1ccccc1	–	> 200	> 200 µM
CSCCC(N)P(C)(=O)O (configuration not stated)	–	> 200	> 200 µM
Clc1nnc(-c2ccccc2)s1	–	> 200	87.1 µM
CC(C)OC/N=C(/N)NC#N	–	> 575	> 575 µM
O=C(O)C1CCC(c2ccc(Cl)cc2Cl)N1 (configuration not stated)	–	> 200	> 200 µM
COc1ccc2c(c1)CCc1cc(OC)ccc1/[N+]([O-])=[N+]\2[O-]	–	> 17.4	> 17.4 µM
CC(=O)CC(=O)N1CCSC1=S	–	126	> 200 µM
CCOC(=O)C(NC(=O)NC(C(=O)OCC)C(=O)OCC)C(=O)OCC	–	> 200	> 200 µM
O=c1c(-c2ccccc2)coc2cc(O)ccc12	–	> 200	52.5 µM
COc1ccc(CC2C(=O)NC(=O)NC2=O)cc1OCc1ccccc1	inactive	–	–
O=C1/C(=C/c2ccccc2Cl)CCc2ccccc21	–	> 10	> 10 µM
O=c1[nH]c(NCc2ccc(Cl)cc2)nc2nc[nH]c12	–	> 200	55 µM
COC1c2ccccc2CC(c2ccccc2)=NN1C(C)=O (configuration not stated)	–	> 89.1	51.3 µM
CCOC(=O)c1c(C)n(C)c2c1nnc1ccccc12	–	> 200	129 µM
Cc1c(NC(=S)NC(=O)c2ccc([N+](=O)[O-])cc2)c(=O)n(-c2ccccc2)n1C	inactive	–	–
CCn1c(SCC(=O)NNC(=S)Nc2ccc([N+](=O)[O-])cc2)nc2ccccc2c1=O	–	> 200	83.2 µM
CSC1=N/C(=C\c2ccc(C)cc2)C(=O)N1	–	> 200	178 µM
O=c1c2cn[nH]c2nc2scc(-c3ccc(Cl)cc3)n12	–	> 200	> 200 µM
O=c1c2nc(-c3ccccc3)oc2n(-c2ccccc2)c(=O)n1-c1ccccc1	–	> 200	117 µM
CCCCCC[n+]1noc(N)c1-c1ccc(-c2c(N)on[n+]2CCCCCC)cc1	–	> 200	2.57 µM
CCNc1ncnc2sc(SCc3ccccc3)nc12	–	> 200	> 200 µM
CCOC(=O)c1ccc2c(=O)[nH]nc(CO)c2c1	–	> 200	117 µM
c1c2c(cc3c1OCN(C1CC1)C3)OCN(C1CC1)C2	–	> 51.3	4.27 µM

SMILES	outcome	EC50 [µM]	IC50
O=c1c2ccccc2[se]n1-c1ccccc1	–	1.62	17.8 µM
COc1cc(-c2cc(=O)c3cc(C)c(C)c(C(=O)O)c3o2)cc(OC)c1OC	inactive	–	–
O=C(O)c1cc(O)cc(O)c1CNc1ccc(/C=C\c2ccc(NCc3c(O)cc(O)cc3C(=O)O)cc2S(=O)(=O)O)c(S(=O)(=O)O)c1	–	> 87.1	> 87.1 µM
CC(C)c1cc(OCC(O)CO)cc(C(C)C)c1 (configuration not stated)	–	> 141	> 141 µM
CN(C)C(=O)C1(c2ccc(Cl)cc2)CCN(CCCC(=O)c2ccc(F)cc2)CC1	–	> 79.4	69.2 µM
CC(C)=CCC1=C(O)c2ccccc2C(=O)C1=O	inactive	–	–
COc1cc2c(cc1OC)Cc1cc(OC)c(OC)cc1Cc1cc(OC)c(OC)cc1C2	inactive	–	–
CCCC(O)C(=O)C(CCC)N(CC)CC (configuration not stated)	–	> 1100	> 1100 µM
C=C1CC(COc2ccc3c(C)c(C)c(=O)oc3c2C)(c2ccccc2)OC1=O (configuration not stated)	–	> 200	0.933 µM
COc1ccc(/C=C/C(=O)c2c(-c3ccccc3)nn(C)c(=O)c2N2CCCCC2)cc1	–	15.8	19.1 µM
C(=N\Nc1nnc2c(n1)[nH]c1ccccc12)/c1cccnc1	–	> 200	> 200 µM
O=C1OC2(c3ccccc31)c1ccc(O)c(O)c1Oc1c2ccc(O)c1O	–	> 200	36.3 µM and 33.1 µM and 9.55 µM
CCCCn1c(-c2ccc(Cl)cc2)cs/c1=N\Nc1nc2c(c(=O)n(C)c(=O)n2C)n1C	–	> 33.1	11 µM
CC1(C)O[C@@H]2[C@H](O1)C(=O)O[C@@H]2CO	–	> 200	> 200 µM
COc1ccc(C2C3C(=O)C=CC(=O)C3[C@@H]2C)cc1OC (some centres not stated)	–	> 174	13.2 µM
CCOC(=O)C(c1ccccc1)c1cccc(C(C(=O)OCC)c2ccccc2)n1 (configuration not stated)	–	> 17.8	> 17.8 µM
CCC1(O)CCC2C3CC=C4CCCCC4C3CCC21C (configuration not stated)	–	> 200	30.9 µM
O=C1c2c(/C=C/c3ccc(Cl)c(Cl)c3)nc3ccccc3c2C(=O)N1CCN1CCCCC1	–	> 7.59	> 7.59 µM
COc1cc(C2C(Cl)C(=O)N2NC(=O)c2ccc(N)cc2)cc(Br)c1O (configuration not stated)	–	> 200	13.2 µM
CCOC(=O)C(C(=O)OCC)=S1c2ccccc2Sc2ccccc21	–	> 200	> 200 µM
C/C=C1\CNC2Cc3c([nH]c4ccccc34)C(=O)CC1C2C(=O)OC (configuration not stated)	inactive	–	–
